According to patent US6156700A, “3-(1,2-Benzisothiazol- and isoxazol-5-yl)-2,4(1H,3H)-pyrimidinedione or thione and 3-(1,2-benzisothiazol- and isoxazol-5-yl)-4(3H)-pyrimidinone or thione herbicidal agents” (American Cyanmid Company, priority 1998, dated 2000):

What was measured:
Corn, Field, Zea mays [1] = assay: Preemergence herbicidal evaluation, ZEAMX; type: in vivo, L.; settings: 0.2500 kg/ha
How it was run: (§1)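 Sow seeds in soil-filled cups; spray aqueous acetone compound solution at about 0.0156–0.500 kg/ha; keep on greenhouse benches with routine watering; after four to five weeks, rate visual injury 0–9 compared with control plants.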

[2] = system: ECHORC Watergrass (Calif.); assay: Preemergence weed control, flooded paddy (Table III); type: in vivo, Echinochloa oryzoides; set-up: scale not given here
Procedure: (§2) Preemergence herbicidal activity under flooded paddy conditions is determined as follows: plant seeds or propagating organs are planted in the top 0.5 cm of silt loam soil in 32 oz. plastic containers with a diameter of 10.5 cm and no drainage holes. Water is added to these containers and maintained at 1.5 to 3 cm above the soil surface for the duration of the experiment. The test compounds are applied as aqueous/acetone mixtures 50/50 v/v pipetted directly into the flood water to give the equivalent of about 0.0313 to 0.500 kg/ha of active ingredient. The treated containers are placed on greenhouse benches and cared for in accordance with conventional greenhouse procedures. Three to four weeks after treatment, the test is terminated and each container is examined and herbicidal effect rated according to the rating system provided in Example 185. The compounds evaluated are reported by compound number given in Example 185.

[3] = system: SAGPY Arrowhead (Pygmaea); assay: as above; type: in vivo, Sagittaria pygmaea; set-up: scale not given here
Procedure: as §2

Galium, Galium aparine = assay: Postemergence herbicidal evaluation, GALAP; type: in vivo
How it was run: (§3)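 Visual 0–9 rating vs untreated control (stand, vigor, malformation, size, chlorosis, overall appearance), scored 4–5 wk post-spray. Two-week-old seedlings; compound in 50/50 acetone/water + 0.5% TWEEN 20, ~0.0157–0.500 kg/ha, 40 psi nozzle.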

[4] = system: Sicklepod, Cassia obtusifolia; assay: Postemergence herbicidal evaluation, CASOB; type: in vivo, L.
How it was run: as §3

[5] = system: Morningglory Spp., Ipomoea Spp.; assay: Preemergence herbicidal evaluation, IPOSS; type: in vivo; settings: 0.2500 kg/ha
Text: (§4) Results of herbicide evaluation are expressed on a rating scale (0-9). The scale is based upon a visual observation of plant stand, vigor, malformation, size, chlorosis and overall plant appearance as compared with a control.
The preemergence herbicidal activity of the test compounds of the present invention is exemplified by the following tests in which the seeds of a variety of monocotyledonous and dicotyledonous plants are separately mixed with potting soil and planted on top of approximately one inch of soil in separate pint cups. After planting, the cups are sprayed with the selected aqueous acetone solution containing test compound in sufficient quantity to provide the equivalent of about 0.0156 to 0.500 kg per hectare of test compound per cup. The treated cups are then placed on greenhouse benches, watered and cared for in accordance with conventional greenhouse procedures. From four to five weeks after treatment, the tests are terminated and each cup is examined and rated according to the rating system provided in Example 185.
The compounds evaluated are reported by compound number given in Example 185.

MOOVA Monochoria [6] = assay: Postemergence weed control, flooded paddy (Table IV); type: in vivo, Monochoria vaginalis; set-up: scale not given here
How it was run: (§5)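 Containers holding 3 to 5 cm weeds and rice at the 1.5 to 2.5 leaf stage are flooded and kept 1.5 to 3 cm deep. Test material is applied directly into the water at about 0.0313 to 0.500 kg/ha, then plants are held in the greenhouse for three to four weeks before rating.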

[7] = system: Ragweed, Common, Ambrosia artemisifolia; assay: Preemergence herbicidal evaluation, AMBEL; type: in vivo, L.; settings: 0.2500 kg/ha
How it was run: as §1

ORYSAT Rice, Tebonnet = assay: Rice tolerance, flooded paddy (Table IV); type: in vivo, Oryza sativa; set-up: scale not given here; settings: crop tolerance
How it was run: as §5

Corn, Field, Zea mays [8] = assay: Postemergence herbicidal evaluation, ZEAMX; type: in vivo, L.
How it was run: as §3

MOOVA Monochoria [9] = assay: Preemergence weed control, flooded paddy (Table III); type: in vivo, Monochoria vaginalis; set-up: scale not given here
Procedure: as §2

[10] = system: Velvetleaf, Abutilon theophrasti; assay: Preemergence herbicidal evaluation, ABUTH; type: in vivo, Medic.; settings: 0.2500 kg/ha
How it was run: as §1

[11] = system: Rice, Tebonnet, Oryza sativa; assay: Preemergence herbicidal evaluation, ORYSAT; type: in vivo, (L.) Tebonnet; settings: 0.2500 kg/ha
How it was run: as §1

[12] = system: Barnyardgrass, Echinochloa crus-galli; assay: Postemergence herbicidal evaluation, ECHCG; type: in vivo, (L.) Beau
How it was run: as §3

CYPIR Rice Flatsedge = assay: Preemergence weed control, flooded paddy (Table III); type: in vivo, Cyperus iria; set-up: scale not given here
Procedure: as §2

[13] = system: Ragweed, Common, Ambrosia artemisifolia; assay: Postemergence herbicidal evaluation, AMBEL; type: in vivo, L.
How it was run: as §3

[14] = system: Morningglory Spp., Ipomoea Spp.; assay: Postemergence herbicidal evaluation, IPOSS; type: in vivo; settings: 0.2500 kg/ha
Procedure: In the tests, seedling plants are grown in jiffy flats for about two weeks. The test compounds are dispersed in 50/50 acetone/water mixtures containing 0.5% TWEEN®20, a polyoxyethylene sorbitan monolaurate surfactant of Atlas Chemical Industries, in sufficient quantities to provide the equivalent of about 0.0157 kg to 0.500 kg per hectare of active compound when applied to the plants through a spray nozzle operating at 40 psi for a predetermined time. After spraying, the plants are placed on greenhouse benches and are cared for in accordance with conventional greenhouse procedures. From four to five weeks after treatment, the seedling plants are examined and rated according to the rating system set forth below. Where more than one test is involved for a given compound, the data are averaged.
as §4

[15] = system: Wheat, Winter, cv Riband, Triticum aestivum; assay: Postemergence herbicidal evaluation, TRZAWR; type: in vivo
How it was run: as §3

[16] = system: Sicklepod, Cassia obtusifolia; assay: Preemergence herbicidal evaluation, CASOB; type: in vivo, L.; settings: 0.2500 kg/ha
How it was run: as §1

[17] = system: SAGPY Arrowhead (Pygmaea); assay: Postemergence weed control, flooded paddy (Table IV); type: in vivo, Sagittaria pygmaea; set-up: scale not given here
How it was run: as §5

[18] = system: Foxtail, Green, Setaria viridis; assay: Postemergence herbicidal evaluation, SETVI; type: in vivo, (L.) Beau
How it was run: as §3

Cc1cc(O)c(-c2nsc3ccc(-n4c(=O)cc(C(F)(F)F)n(C)c4=O)cc23)cc1C [Compound 11, 3-[3-(6-Hydroxy-3,4-xylyl)-1,2-benzisothiazol-5-yl]-1-methyl-6-(trifluoromethyl)-2,4(1H,3H)-pyrimidinedione]
herbicide rating (0-9) (Corn, Field, Zea mays [1]): 5.0 | herbicidal effect rating ([2]; 0.0625 kg/ha): 7.0 | herbicidal effect rating ([2]; 0.1250 kg/ha): 8.0 | herbicidal effect rating ([2]; 0.2500 kg/ha): 8.0 | herbicidal effect rating ([2]; 0.5000 kg/ha): 9.0 | herbicidal effect rating ([3]; 0.0625 kg/ha): 0.0 | herbicidal effect rating ([3]; 0.1250 kg/ha): 0.0 | herbicidal effect rating ([3]; 0.2500 kg/ha): 2.0 | herbicidal effect rating ([3]; 0.5000 kg/ha): 9.0 | herbicide rating (0-9) (Galium, Galium aparine; 0.2500 kg/ha): 6.0 | herbicide rating (0-9) ([4]; 0.2500 kg/ha): 7.0 | herbicide rating (0-9) [5]: 5.0 | herbicidal effect rating (MOOVA Monochoria [6]; 0.1250 kg/ha): 9.0 | herbicidal effect rating (MOOVA Monochoria [6]; 0.2500 kg/ha): 9.0 | herbicidal effect rating (MOOVA Monochoria [6]; 0.5000 kg/ha): 9.0 | herbicide rating (0-9) [7]: 9.0 | herbicidal effect rating (ORYSAT Rice, Tebonnet; 0.1250 kg/ha): 0.0 | herbicidal effect rating (ORYSAT Rice, Tebonnet; 0.2500 kg/ha): 1.0 | herbicidal effect rating (ORYSAT Rice, Tebonnet; 0.5000 kg/ha): 1.0 | herbicide rating (0-9) (Corn, Field, Zea mays [8]; 0.2500 kg/ha): 5.5 | herbicidal effect rating (MOOVA Monochoria [9]; 0.0625 kg/ha): 9.0 | herbicidal effect rating (MOOVA Monochoria [9]; 0.1250 kg/ha): 9.0 | herbicidal effect rating (MOOVA Monochoria [9]; 0.2500 kg/ha): 9.0 | herbicidal effect rating (MOOVA Monochoria [9]; 0.5000 kg/ha): 9.0 | herbicide rating (0-9) [10]: 9.0 | herbicide rating (0-9) [11]: 0.0 | herbicide rating (0-9) ([12]; 0.2500 kg/ha): 7.0 | herbicidal effect rating (CYPIR Rice Flatsedge; 0.0625 kg/ha): 9.0 | herbicidal effect rating (CYPIR Rice Flatsedge; 0.1250 kg/ha): 9.0 | herbicidal effect rating (CYPIR Rice Flatsedge; 0.2500 kg/ha): 9.0 | herbicidal effect rating (CYPIR Rice Flatsedge; 0.5000 kg/ha): 9.0 | herbicide rating (0-9) ([13]; 0.2500 kg/ha): 9.0 | herbicide rating (0-9) [14]: 9.0 | herbicide rating (0-9) ([15]; 0.2500 kg/ha): 5.0 | herbicide rating (0-9) [16]: 3.0 | herbicidal effect rating ([17]; 0.1250 kg/ha): 0.0 | herbicidal effect rating ([17]; 0.2500 kg/ha): 4.0 | herbicidal effect rating ([17]; 0.5000 kg/ha): 7.0 | herbicide rating (0-9) ([18]; 0.2500 kg/ha): 8.0

Cc1nsc2ccc(-n3c(=O)cc(C(F)(F)F)n(C)c3=O)cc12 [Compound 6, 1-Methyl-3-(3-methyl-1,2-benzisothiazol-5-yl)-6-(trifluoromethyl)-2,4(1H,3H)-pyrimidinedione]
herbicide rating (0-9) (Corn, Field, Zea mays [1]): 9.0 | herbicidal effect rating ([2]; 0.0625 kg/ha): 6.0 | herbicidal effect rating ([2]; 0.1250 kg/ha): 8.0 | herbicidal effect rating ([2]; 0.2500 kg/ha): 9.0 | herbicidal effect rating ([2]; 0.5000 kg/ha): 9.0 | herbicidal effect rating ([3]; 0.0625 kg/ha): 4.0 | herbicidal effect rating ([3]; 0.1250 kg/ha): 7.0 | herbicidal effect rating ([3]; 0.2500 kg/ha): 7.0 | herbicidal effect rating ([3]; 0.5000 kg/ha): 9.0 | herbicide rating (0-9) (Galium, Galium aparine; 0.0630 kg/ha): 5.0 | herbicide rating (0-9) (Galium, Galium aparine; 0.2500 kg/ha): 9.0 | herbicide rating (0-9) ([4]; 0.0630 kg/ha): 2.5 | herbicide rating (0-9) ([4]; 0.2500 kg/ha): 8.0 | herbicide rating (0-9) [5]: 9.0 | herbicidal effect rating (MOOVA Monochoria [6]; 0.1250 kg/ha): 9.0 | herbicidal effect rating (MOOVA Monochoria [6]; 0.2500 kg/ha): 9.0 | herbicidal effect rating (MOOVA Monochoria [6]; 0.5000 kg/ha): 9.0 | herbicide rating (0-9) [7]: 9.0 | herbicidal effect rating (ORYSAT Rice, Tebonnet; 0.1250 kg/ha): 9.0 | herbicidal effect rating (ORYSAT Rice, Tebonnet; 0.2500 kg/ha): 9.0 | herbicidal effect rating (ORYSAT Rice, Tebonnet; 0.5000 kg/ha): 9.0 | herbicide rating (0-9) (Corn, Field, Zea mays [8]; 0.0630 kg/ha): 4.5 | herbicide rating (0-9) (Corn, Field, Zea mays [8]; 0.2500 kg/ha): 3.5 | herbicidal effect rating (MOOVA Monochoria [9]; 0.0625 kg/ha): 9.0 | herbicidal effect rating (MOOVA Monochoria [9]; 0.1250 kg/ha): 9.0 | herbicidal effect rating (MOOVA Monochoria [9]; 0.2500 kg/ha): 9.0 | herbicidal effect rating (MOOVA Monochoria [9]; 0.5000 kg/ha): 9.0 | herbicide rating (0-9) [10]: 9.0 | herbicide rating (0-9) [11]: 8.0 | herbicide rating (0-9) ([12]; 0.0630 kg/ha): 1.5 | herbicide rating (0-9) ([12]; 0.2500 kg/ha): 6.0 | herbicidal effect rating (CYPIR Rice Flatsedge; 0.0625 kg/ha): 9.0 | herbicidal effect rating (CYPIR Rice Flatsedge; 0.1250 kg/ha): 9.0 | herbicidal effect rating (CYPIR Rice Flatsedge; 0.2500 kg/ha): 9.0 | herbicidal effect rating (CYPIR Rice Flatsedge; 0.5000 kg/ha): 9.0 | herbicide rating (0-9) ([13]; 0.0630 kg/ha): 6.5 | herbicide rating (0-9) ([13]; 0.2500 kg/ha): 9.0 | herbicide rating (0-9) [14]: 9.0 | herbicide rating (0-9) ([15]; 0.0630 kg/ha): 1.5 | herbicide rating (0-9) ([15]; 0.2500 kg/ha): 5.0 | herbicide rating (0-9) [16]: 9.0 | herbicidal effect rating ([17]; 0.1250 kg/ha): 6.0 | herbicidal effect rating ([17]; 0.2500 kg/ha): 8.0 | herbicidal effect rating ([17]; 0.5000 kg/ha): 9.0 | herbicide rating (0-9) ([18]; 0.0630 kg/ha): 2.0 | herbicide rating (0-9) ([18]; 0.2500 kg/ha): 9.0
